The values below come from publication PMC8748916, “Microbial enzymes induce colitis by reactivating triclosan in the mouse gastrointestinal tract” (Nature Communications, 2022).

“And” between values parts separate entries of the source, which are not always exact repeats. Equal entries are not always repeated. Where two headings read alike, the source gives them in different places.

As a reminder, the % Inhibition is the drop in the measured response relative to a control, in per cent. A low value points to a response near the control. As usually defined, the IC50 is the concentration that inhibits the measured activity by half. What is called inhibition is the drop in the measured response relative to a control, in per cent.

On the set-up of data set [1]: method as in earlier work. The note with it: human, ref 32,33 (reply to reviewers), cited from earlier work.
Data set [2] concerns gut microbial β-glucuronidase (GUS) enzymes. The data set is described as follows: In vitro UDH (coupled) assay of TCS-G cleavage by a panel of 32 purified GUS enzymes. In kind it is biochemical.
In data set [3] the test system is enzymes extracted from human fecal samples. The data set can be described thus: In fimo inhibition assay (TCS-G processing by human fecal extracts). The note with it: for % Inhibition: Fig. 4d, triplicate. In kind it is biochemical. Here is the method:
Fecal extracts were prepared and proteomic analysis was performed exactly as previously described. In total, 10 g of frozen human fecal sample was thawed and added to 25 mL extraction buffer (25 mM HEPES, 25 mM NaCl pH 6.5 with Roche Complete protease inhibitor tablet) and 0.5 g autoclaved garnet beads. The mixture was vortexed until homogenous and centrifuged at low speed (300 × g for 5 min at 4 °C). The supernatant was decanted. In all, 25 mL buffer was added to the pellet and the vortex and centrifugation steps repeated. The supernatants from these steps were then combined and centrifuged at low speed for two more cycles. The resultant supernatant was sonicated twice using 1 s pulses for 1.5 min and the lysate was centrifuged at 17,000 × g for 20 min in a Beckman Coulter J2-HC centrifuge. The decanted lysate was then washed with several exchanges of extraction buffer to remove metabolites and small molecules. Total protein concentration was quantitated using a Bradford assay. The fecal lysate was diluted to 1 mg/mL concentration and snap-frozen in small aliquots.
Reaction mixtures contained 5 µL fecal extract (0.1 mg/mL final), 10 µL TCS-G (200 µM final), 5 µL GUSi (10, 1, or 0.1 µM final), and 30 µL assay buffer (25 mM HEPES, 25 mM NaCl, pH 6.5). Reactions were quenched at 30 min with 50 µL 25% trichloroacetic acid. Samples were centrifuged 20 min at 16,000 × g in a tabletop centrifuge, and the supernatant was analyzed via the same HPLC method described for the catalytic efficiency assay. Controls contained 5 µL buffer in place of GUSi. Inhibition was calculated using Eq. 1.

In data set [4] the target is C. perfringens GUS (Clostridium perfringens, UniProt Q8XP19). The data set can be described thus: biochemical.
Chain of C. perfringens GUS (Q8XP19 whole entry, looked up): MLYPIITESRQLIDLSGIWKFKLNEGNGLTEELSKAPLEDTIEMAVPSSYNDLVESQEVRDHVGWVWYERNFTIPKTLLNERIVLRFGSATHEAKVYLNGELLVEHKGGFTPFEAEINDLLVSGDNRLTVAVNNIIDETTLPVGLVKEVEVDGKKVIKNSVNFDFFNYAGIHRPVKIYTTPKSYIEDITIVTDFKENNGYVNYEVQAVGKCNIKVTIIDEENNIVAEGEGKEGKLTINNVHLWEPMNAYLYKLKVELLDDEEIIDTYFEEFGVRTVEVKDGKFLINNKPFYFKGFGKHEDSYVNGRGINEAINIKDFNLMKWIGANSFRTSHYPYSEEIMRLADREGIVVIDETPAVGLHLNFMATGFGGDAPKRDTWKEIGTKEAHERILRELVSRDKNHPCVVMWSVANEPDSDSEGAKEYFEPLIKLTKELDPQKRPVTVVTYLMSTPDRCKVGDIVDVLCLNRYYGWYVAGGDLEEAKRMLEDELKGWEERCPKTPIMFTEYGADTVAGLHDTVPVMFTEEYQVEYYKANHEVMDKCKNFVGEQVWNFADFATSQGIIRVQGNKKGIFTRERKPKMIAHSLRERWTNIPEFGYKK
A short description of data set [5]: Solubility in water (statement). The conditions noted are these: authors' reply to reviewers. In kind it is physicochemical.
The test system of data set [6] is MC38 cells. The data set can be described thus: Cell proliferation assay (MTT). In kind it is cell-based, mouse. How it is done: Mouse (MC38) or human (Caco2 and HCT-116) intestinal cells were grown in DMEM medium fortified with 10% FBS (EMD Millipore Corporation). The cells were seeded in 96-well plates, then treated with GUSi or vehicle (0.2% v/v DMSO) for 24 h. Cell viability was determined using an MTT assay.
Fig. S14. GUSi treatment has little effect on the proliferation of mouse or human intestinal cells in vitro.
Mouse (MC38) or human (Caco2 and HCT-116) intestinal cells were treated with GUSi or vehicle (0.2% v/v
DMSO) for 24 h, then cell viability was analyzed using a MTT assay. The data are mean ± SEM, n = 5-6 per

In data set [7] the test system is fecal microbiota. The data set can be described thus: 16S rRNA sequencing of fecal microbiota of GUSi-treated mice. The note with it: 1 mg/kg GUSi via oral gavage.
Where [8] appears, read: read-out: C. perfringens GUS % inhibition.

In the case of `Oc1cc(Cl)ccc1Oc1ccc(Cl)cc1Cl` [TCS, Triclosan], in data set [1] (after weeks of daily use of TCS-containing toothpaste), the “plasma concentrations of TCS (TCS plus TCS-G)” value was 90–1,000 nM. The “plasma concentrations of TCS (TCS plus TCS-G), baseline” value in data set [1] (before use of TCS-containing toothpaste) was 0.03 to 2.7 nM.

Take `O=C(O)C1OC(Oc2cc(Cl)ccc2Oc2ccc(Cl)cc2Cl)C(O)C(O)C1O` (centres unmarked) [TCS-G, triclosan-glucuronide]: the Rate in data set [2] was 0.1092 µM/s and 0.1031 µM/s and 0.1177 µM/s; in data set [2] (GUS: Akkermansia muciniphila, Fig. 3a, replicates 1-3) it was 0.0108 µM/s and 0.0181 µM/s and 0.0194 µM/s; in data set [2] (GUS: Akkermansia sp. CAG:344, Fig. 3a, replicates 1-3), 0.0157 µM/s and 0.0151 µM/s and 0.0237 µM/s; in data set [2] (GUS: Bacteroides MSP (BMSP), Fig. 3a, replicates 1-3), 0.0000 µM/s and 0.0073 µM/s and 0.0072 µM/s; in data set [2] (GUS: Bacteroides coprocola CAG: 126, Fig. 3a, replicates 1-3), 0.0000 uM/s (2×) and 0.0056 uM/s; in data set [2] (GUS: Bacteroides dorei, Fig. 3a, replicates 1-3), 0.0000 µM/s. The Rate is 0.0000 uM/s (2×) and 0.0043 uM/s in data set [2] (GUS: Bacteroides fragillis (1, mini loop), Fig. 3a, replicates 1-3); 0.0228 µM/s and 0.0242 µM/s and 0.0201 µM/s in data set [2] (GUS: Bacteroides fragillis (2, No Loop), Fig. 3a, replicates 1-3); 0.0000 µM/s and 0.0060 µM/s and 0.0033 µM/s in data set [2] (GUS: Bacteroides ovatus 1 (Double mini loop), Fig. 3a, replicates 1-3); 0.0287 µM/s and 0.0311 µM/s and 0.0066 µM/s in data set [2] (GUS: Bacteroides ovatus 2 (loop 2), Fig. 3a, replicates 1-3); 0.0000 µM/s in data set [2] (GUS: Bacteroides uniformis 1, Fig. 3a, replicates 1-3); 0.0217 µM/s and 0.0464 µM/s and 0.0098 µM/s in data set [2] (GUS: Bacteroides uniformis 2, Fig. 3a, replicates 1-3). The Rate in data set [2] (GUS: Bacteroides uniformis 3, Fig. 3a, replicates 1-3) is 0.0000 µM/s; in data set [2] (GUS: Clostridiales sp., Fig. 3a, replicates 1-3), 0.2137 µM/s and 0.2298 µM/s and 0.2970 µM/s; in data set [2] (GUS: Escherichia coli, Fig. 3a, replicates 1-3), 0.0775 µM/s and 0.0865 µM/s and 0.0858 µM/s; in data set [2] (GUS: Eubacterium eligens, Fig. 3a, replicates 1-3), 0.1302 µM/s and 0.1403 µM/s and 0.1746 µM/s; in data set [2] (GUS: Eubacterium sp. CAG: 76, Fig. 3a, replicates 1-3), 0.2371 µM/s and 0.2156 µM/s and 0.2776 µM/s; in data set [2] (GUS: Faecalibacterium prausnitzii 2-L1, Fig. 3a, replicates 1-3), 0.4231 µM/s and 0.3684 µM/s and 0.3821 µM/s. For the same molecule, the Rate is 0.2237 µM/s and 0.2529 µM/s and 0.1639 µM/s in data set [2] (GUS: Faecalibacterium prausnitzii L2-6, Fig. 3a, replicates 1-3); 0.1749 µM/s and 0.1228 µM/s and 0.2576 µM/s in data set [2] (GUS: Faecalibacterium prausnitzii, Fig. 3a, replicates 1-3); 0.0089 µM/s and 0.0000 µM/s and 0.0052 µM/s in data set [2] (GUS: Fusicatenibacter saccharivorans, Fig. 3a, replicates 1-3); 0.0684 µM/s and 0.0777 µM/s and 0.0864 µM/s in data set [2] (GUS: H11G11, Fig. 3a, replicates 1-3); 0.0323 µM/s and 0.1224 µM/s and 0.1254 µM/s in data set [2] (GUS: Lactobacillus rhamnosus, Fig. 3a, replicates 1-3); 0.0043 µM/s and 0.0011 µM/s and 0.0000 µM/s in data set [2] (GUS: Parabacteroides merdea, Fig. 3a, replicates 1-3). Further, the Rate in data set [2] (GUS: Roseburia hominis 2, Fig. 3a, replicates 1-3) was 0.0519 µM/s and 0.0527 µM/s and 0.0448 µM/s; in data set [2] (GUS: Roseburia hominis 3, Fig. 3a, replicates 1-3), 0.4975 µM/s and 0.4668 µM/s and 0.4395 µM/s; in data set [2] (GUS: Roseburia hominis, Fig. 3a, replicates 1-3), 0.0330 µM/s and 0.0266 µM/s and 0.0438 µM/s; in data set [2] (GUS: Roseburia intestinalis, Fig. 3a, replicates 1-3) it was 0.0269 µM/s and 0.0251 µM/s and 0.0293 µM/s; in data set [2] (GUS: Roseburia inulinvorans, Fig. 3a, replicates 1-3), 0.1707 µM/s and 0.1889 µM/s and 0.1974 µM/s; in data set [2] (GUS: Ruminoccus gnavus 1, Fig. 3a, replicates 1-3) it was 0.0272 µM/s and 0.0287 µM/s and 0.0319 µM/s. Further, the Rate in data set [2] (GUS: Ruminoccus gnavus 3, Fig. 3a, replicates 1-3) is 0.1417 µM/s and 0.1517 µM/s and 0.1712 µM/s; in data set [2] (GUS: Streptococcus agalactiae, Fig. 3a, replicates 1-3), 0.0757 µM/s and 0.0745 µM/s and 0.0702 µM/s.

For `C1CCc2c(c(N3CCOCC3)nc3sc4c(N5CCNCC5)nnnc4c23)C1` [GUSi, UNC10201652], in data set [3] (human fecal extracts, GUSi 10, 1 or 0.1 µM), the “effect on TCS-G processing by fecal enzyme mixtures ex vivo” value is given as “inhibited TCS-G processing”. Moreover, the “% Inhibition” value in data set [3] (human fecal sample F3, 0.1 uM GUSi) is 26.0315% and 22.661% and 26.9159%; in data set [3] (human fecal sample F3, 1 uM GUSi), 55.0638% and 49.4467% and 55.1636%; in data set [3] (human fecal sample F3, 10 uM GUSi), 63.3658% and 70.4225% and 80.8879%; in data set [3] (human fecal sample M1, 0.1 uM GUSi) it was 43.1579% and 25.7515% and 43.5009%; in data set [3] (human fecal sample M1, 1 uM GUSi), 77.2204% and 69.1166% and 76.6073%; in data set [3] (human fecal sample M1, 10 uM GUSi), 87.4836% and 92.1188% and 91.6683%. For the same molecule, the “% Inhibition” value was 44.8187% and 47.2169% and 47.9485% in data set [3] (human fecal sample M3, 1 uM GUSi); 84.9872% and 79.6161% and 93.8804% in data set [3] (human fecal sample M3, 10 uM GUSi). For the same molecule, in data set [4], the IC50 was 640 ± 40 nM. Moreover, the inhibition at 1.23457 µM in data set [4] (setting [8]) amounted to 78%. In data set [4] (setting [8]), the inhibition at 3.7037 µM turned out to be 93.9%. The inhibition at 11.1111 µM in data set [4] (setting [8]) came out at 97.7%. Besides, in data set [4] (setting [8]), the inhibition at 33.3333 µM was determined as 98.6%. Besides, the inhibition at 100 µM in data set [4] (setting [8]) worked out at 99.4%. For the same molecule, the solubility in water result in data set [5] is on record as “poorly solubilized”. The “effect on cell growth (MTT)” value in data set [6] (24-h treatment, concentration up to 10 µM) is recorded as “little effect”. The “Cell proliferation (Fig. S14)” value is 97.1748 and 94.9589 and 98.929 and 107.192 and 94.0356 and 103.315 in data set [6] (MC38, concentration 1, replicates); 103.453 and 99.2983 and 100.314 and 103.361 and 103.084 and 108.023 in data set [6] (MC38, concentration 2, replicates); 85.9108 and 74.139 and 84.9875 and 91.9121 and 86.7418 and 84.0181 in data set [6] (MC38, concentration 5, replicates); 68.784 and 87.3419 and 84.2489 and 91.7736 and 82.9102 in data set [6] (MC38, concentration 10, replicates). Moreover, the “effect on the diversity or composition of fecal microbiota” value in data set [7] is recorded as “little effect”.
